Test results from PMC4955970, “Stable, synthetic analogs of diadenosine tetraphosphate inhibit rat and human P2X3 receptors and inflammatory pain” (Molecular Pain, 2016).
Several values for one entry are separate records, joined by “and”; a condition that tells them apart may be missing. Identical values can stand only once. Like-named read-outs stand apart in the source and are kept apart here.

Experiments:
[1] = test system: formalin-induced nociceptive behavior; assay: Formalin test (spontaneous jerking of the injected hindpaw); assay type: in vivo, rat; conditions: for in vivo IC50 per animal body weight: calculated from effective concentrations in formalin model; for IC50: locally administered concentration, coinjection with formalin
Experimental: All animal experiments were carried out in accordance with the “Guide for the Care and Use of Laboratory Animals” as adopted by the Bogomoletz Institute of Physiology Clinic of Animal Care and Use. The formalin test experiments were performed on 21-day-old male Wistar rats, weighing 40 ± 5 g according to the method described previously.[49],[50] Briefly, animal was acclimated to an acrylic observation chamber for at least 1 h before the injection of formalin (50 µl of 0.5% solution in 0.9% saline) into the dorsal surface of the right hindpaw. Immediately after the injection, each animal was returned to the observation chamber and its behavioral characteristics were recorded for 45 min. We noticed consistently observed type of response: spontaneous jerking of the injected paw. The number of jerks was measured for each 1-min block, using self-developed computer software.
Figure 8. Effects of subcutaneous Ap4A analogs on pain responses induced by intraplantar (right hindpaw) formalin injection. Rats were subcutaneously injected with formalin solution alone (0.5%, 50 µl, control) or coinjected with the formalin solution and solutions with AppCH2ppA (1 µM–100 µM, 100 µl) or AppNHppA (0.1 µM–100 µM, 100 µl). Age-matched control animals were injected with saline. (a) Time course of the effects of subcutaneous AppCH2ppA (left) and AppNHppA (right) on the number of the spontaneous jerkings of the injected paw. (b) Bar graphs of the effects of AppCH2ppA (b, c) and AppNHppA (d, e) on the integral number of spontaneous jerkings. Measurements were made during the acute phase (0–6 min) and tonic phase (7–45 min) of the formalin response. (f) Dose-response curves for AppCH2ppA (left) and AppNHppA (right) during tonic and acute phases. For each concentration 6–7 rats were used.

[2] = test system: CFA-induced thermal hyperalgesia; assay: Hargreaves plantar test, CFA-induced thermal hyperalgesia; assay type: in vivo, rat; conditions: 20 µM; for period after intraplantar injection in which antinociceptive effect was observed: inflamed hindpaw
Experimental: To induce chronic inflammatory hyperalgesia, rats were injected with complete Freund’s adjuvant (CFA, 100 μl of 50% solution) into the plantar surface of the right hindpaw 24 h prior to testing. Control animals were injected with 100 μl of pure saline. Injections of AppCH2ppA and AppNHppA (100 nM–100 μM) in 100 μl of 0.9% saline were made just before the beginning of the plantar test.
For intrathecal injection, a polyethylene-10 catheter was inserted into the rat’s subarachnoid space through a small incision at the cisterna magna, and the tip of the catheter was implanted at the L4 spinal segmental level. Animals were allowed to recover for at least four days before behavior tests. AppCH2ppA or vehicle (saline) was injected intrathecally (10 µl) and flushed with 10 µl of saline.
The Hargreaves technique[51] was used for thermal hyperalgesia studies (using the Ugo Basile Model 7370 Plantar Test). Paw withdrawal responses to noxious heat stimuli were measured in rats as described.[52] To measure response to noxious heat stimuli, each animal was placed in a Plexiglas chamber on a glass plate located above a light box. Radiant heat was applied by focused infrared (IR) beam to the middle of the plantar surface of rat hindpaw. When the animal lifted its foot, the IR beam was turned off. The time interval between the start of the IR beam and the foot lift was defined as the paw withdrawal latency. Each trial was repeated 13 times at 20-min intervals for each paw. A cut-off time of 30 s was used to prevent paw tissue damage.
Figure 10. Ap4A analogs reduced thermal hyperalgesia induced by complete Freund adjuvant (CFA) (Hargreaves plantar test). (a) Time course of the effects of subcutaneous injection of AppCH2ppA (20 µM) and AppNHppA (20 µM) on the paw withdrawal latency (PWL). […] (b) Bar graphs illustrating the effects of AppCH2ppA (20 µM) and AppNHppA (20 µM) on PWL. (c) Time course of effects of intraplantar and intrathecal administration of AppCH2ppA (20 µM) on PWL. […] (d) Bar graphs illustrating effects of intathecal and intraplantar administration of AppCH2ppA (20 µM) on the PWL (* vs. CFA, p < 0.05; *** vs. CFA, p < 0.001; ### vs. intrathecal, p < 0.001; seven rats for control, eight rats for CFA, six rats for intrathecal, and six rats for each compound for intraplantar injection were used).

SMILES	in vivo IC50 per animal body weight [1]	IC50 ([1]; acute phase, read-out: IC50 in the acute phase of formalin test) [nM]	IC50 ([1]; tonic phase 7–45 min, read-out: IC50 in the tonic phase of formalin test) [nM]	duration of antinociceptive effect, intraplantar ([2]; intraplantar) [min]	pain inhibition, intraplantar administration ([2]; intraplantar) [%]	time after intraplantar injection at which effect became potent ([2]; intraplantar) [min]	period after intraplantar injection in which antinociceptive effect was observed ([2]; intraplantar) [min]	duration of antinociceptive effect, intrathecal ([2]; intrathecal) [min]	pain inhibition, intrathecal administration ([2]; intrathecal) [%]	time after intrathecal injection at which effects were observed ([2]; intrathecal) [min]	IC50 ([1]; Rattus norvegicus, acute phase, read-out: IC50 in the acute phase of formalin test) [nM]	IC50 ([1]; Rattus norvegicus, tonic phase 7–45 min, read-out: IC50 in the tonic phase of formalin test) [nM]
Nc1ncnc2c1ncn2[C@@H]1O[C@H](COP(=O)(O)OP(=O)(O)CP(=O)(O)OP(=O)(O)OC[C@H]2O[C@@H](n3cnc4c(N)ncnc43)C(O)C2O)C(O)C1O (stereo partly drawn) [AppCH2ppA, diadenosine 5′,5′′′-P^1,P^4-(β,γ-methylene)tetraphosphate]	0.72 nmol/kg and 0.61 µg/kg	34700 ± 13200	290 ± 50	180	58	20	≤ 200	60	22	120		
Nc1ncnc2c1ncn2[C@@H]1O[C@H](COP(=O)(O)OP(=O)(O)NP(=O)(O)OP(=O)(O)OC[C@H]2O[C@@H](n3cnc4c(N)ncnc43)[C@H](O)[C@@H]2O)[C@@H](O)[C@H]1O [AppNHppA, diadenosine 5′,5′′′-P^1,P^4-(β,γ-imido)tetraphosphate]	0.28 nmol/kg and 0.23 µg/kg			180		20	≤ 200				> 100000	110 ± 20
